“And” between values parts separate entries of the source, which are not always exact repeats. Identical values can stand only once.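 Following 48 hours of exposure in 96-well plates, responses at five concentrations were used to interpolate endpoints linearly. GI50: concentration for 50% inhibition of growth. The concentration for full growth arrest is given as TGI.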
Columns and labels:
Test in all cases: DTP human tumour cell line panel, 48 h
UACC-62 melanoma = tested on: UACC-62 melanoma
SK-MEL-28 melanoma = tested on: SK-MEL-28 melanoma
ACHN renal = tested on: ACHN renal
CCRF-CEM leukemia = tested on: CCRF-CEM leukemia
SF-539 CNS = tested on: SF-539 CNS
A549 NSCLC = tested on: A549 NSCLC
DU-145 prostate = tested on: DU-145 prostate
T-47D breast = tested on: T-47D breast
NCI-H460 lung = tested on: NCI-H460 lung
HL-60(TB) leukemia = tested on: HL-60(TB) leukemia

SMILES	GI50 (UACC-62 melanoma) [µM]	TGI (UACC-62 melanoma)	GI50 (SK-MEL-28 melanoma) [µM]	TGI (SK-MEL-28 melanoma)	GI50 (ACHN renal) [µM]	TGI (ACHN renal)	GI50 (CCRF-CEM leukemia) [µM]	TGI (CCRF-CEM leukemia)	GI50 (SF-539 CNS) [µM]	TGI (SF-539 CNS)	GI50 (A549 NSCLC) [µM]	TGI (A549 NSCLC)	GI50 (DU-145 prostate) [µM]	TGI (DU-145 prostate)	GI50 (T-47D breast) [µM]	TGI (T-47D breast)	GI50 (NCI-H460 lung) [µM]	TGI (NCI-H460 lung)	GI50 (HL-60(TB) leukemia) [µM]	TGI (HL-60(TB) leukemia)
CC[C@]12C=CCN3CC[C@@]4(c5ccc(OC)cc5N(C)[C@H]4[C@@](O)(C(=O)OC)[C@@H]1OC(=O)CCCN1CCN(CCCC(=O)O[C@@H]4[C@]5(CC)C=CCN6CC[C@@]7(c8ccc(OC)cc8N(C)[C@H]7[C@@]4(O)C(=O)OC)[C@@H]65)CC1)[C@@H]32	1.68	3.13 µM	1.4	2.78 µM	0.857	2.07 µM	1.23	3.03 µM	1.38	2.7 µM	1.31	2.95 µM	0.701	1.99 µM	1.6	3.44 µM	1.11	2.5 µM	0.464	1.85 µM
CCCCCCCCCCCCOC1C(C(COC2OC(C(O)CO)C3OC(C)(C)OC23)OC(=O)Nc2ccccc2)OC2OC(C)(C)OC21 (configuration not stated)	10.5	22.5 µM	7.24	19.3 µM	4.82	16.3 µM		6.66 µM	9.14	22.3 µM	6.08	20.6 µM	10	22.8 µM	5.02	16.6 µM	3.88	13.3 µM	0.484	1.6 µM
FC(F)(F)c1cccc(CNC2CCN(CCc3ccccc3)CC2)c1	13.9	30.7 µM	16	31.7 µM	33.2	> 100 µM	27	75.8 µM	15.3	30.2 µM	40.3	> 100 µM	46.3	> 100 µM	20	52.9 µM	19.1	39.6 µM	20.9	49 µM
C=C(C)c1nc(Oc2ccccc2)nc(Oc2ccccc2)n1		18.1 µM		15.3 µM		23 µM		9.25 µM		14.5 µM		38.8 µM		30.4 µM		21.6 µM		22.8 µM		4.51 µM
OCc1ccc(N2CCc3ccc(F)cc3C2)cc1Cl	0.0405	0.248 µM	13.1	26.1 µM	10.4	23 µM	2.6	9.97 µM	15.9	31 µM	0.516	19.8 µM	7.06	21.2 µM	0.101	0.499 µM	0.0872	0.532 µM	1.12	14.5 µM
CN(c1ccccc1)c1c2ccccc2nc2[nH]c3ccccc3c12	1.5	4.21 µM	2.08	7.42 µM	1.43	3.2 µM	1.27	> 100 µM	1.91	4.59 µM	0.943	3.27 µM	1.44	8.76 µM	3.84	32.6 µM	1.16	10.3 µM	0.985	6.25 µM
CCOC(=O)C#Cc1c(C(=O)OCC)nnn1[C@@H]1O[C@H](COC)[C@@H](OC)[C@H]1OC	2.19	5.41 µM	3.49	12.8 µM	1.95	3.9 µM	1.87	4.93 µM			20.9	40.4 µM	10.6	22.4 µM	2.47	7.39 µM	17.8	36.2 µM	1.98	5.41 µM
Cc1cccc(Oc2ccc(Nc3ncnc4ccc(NC(=O)CN(C)C)cc34)cc2Cl)c1	1.71	3.38 µM	1.85	3.48 µM	0.804	4 µM	2.54	8.14 µM	1.82	3.42 µM	1.91	10.1 µM	2.14	10.8 µM	1.08	4.59 µM	1.81	3.35 µM	2.07	4.72 µM
CNCc1cccc2c1OCCOCCOCCNS(=O)(=O)c1ccc(cc1)-c1cnc(N)c(n1)C(=O)N2	1.61	2.99 µM	1.66	3.27 µM	2.78	11.7 µM	0.532	8.57 µM	1.11	2.38 µM	1.58	4.82 µM	1.24	3.36 µM	2.05	5.46 µM	1	3.25 µM	0.452	1.89 µM
CC1(C)CC2=NO[Se]3=C2C(=NO3)C1		6.63 µM		16.6 µM		3.61 µM		30.4 µM		5.75 µM		14.2 µM		10.4 µM		24.7 µM		4.05 µM		5.08 µM
N=C(N)SCc1ccc(Cl)c2ccccc12 (tested in a mixture with another compound)		26.4 µM and 25.6 µM		28.1 µM and 25.6 µM		25.1 µM and 25.8 µM		26.4 µM and 17.4 µM		23.1 µM and 20.4 µM		31.3 µM and 35.5 µM		27.7 µM and 25.9 µM		18.3 µM and 21.7 µM		22.4 µM and 21 µM		12.6 µM and 17.8 µM
C#CCCCCCC(=O)N[C@H]1C=C[C@@H]2/C=C(C)/C=C/[C@@H](C)[C@H]([C@H](C)[C@H](O)[C@@H](C)NC(C)=O)OC(=O)/C=C/C=C(C)\C=C\[C@]2(C)C1	0.023	9.04 µM	0.00795	12.3 µM	< 0.004	> 40 µM	0.479	> 40 µM	< 0.004	32.3 µM	< 0.004	> 40 µM	0.0157	> 40 µM	< 0.004	13.6 µM	< 0.004	> 40 µM	0.0335	9.31 µM
NS(=O)(=O)c1cc2c(cc1Cl)NCNS2(=O)=O				> 100 µM		> 100 µM		> 100 µM		> 100 µM		> 100 µM		> 100 µM		> 100 µM		> 100 µM		> 100 µM
COc1cc(NC(=O)COc2ccccc2)c(C(N)=O)cc1OC	2.52	> 100 µM	24.2	> 100 µM	8.12	> 100 µM	0.562	> 100 µM	0.563	3.59 µM	0.917	> 100 µM	0.914	> 100 µM	3.46	> 100 µM	0.529	> 100 µM	0.293	7.25 µM
COc1ccc(Cn2c(Br)c3c(c2-c2cc(OC)c(OC)c(OC)c2)CCc2sc(N)nc2-3)cc1	0.598	15 µM	4.76	33.6 µM	1.07	25.7 µM	0.89	4.4 µM	1.16	10.5 µM	2.23	> 100 µM	2.04	7.43 µM	0.626	21.5 µM	1.89	10.2 µM	0.465	3.67 µM
COc1cc(/C=C/C(=O)c2nc3cc(F)ccc3nc2C)cc(OC)c1OC	5.57	> 100 µM	7.91	> 60.3 µM	10.3	> 100 µM	1.85	> 21 µM	> 100	> 100 µM	7.37	> 100 µM	3.09	> 100 µM	4.91	> 100 µM	4.05	> 100 µM	1.78	
COc1ccc(-n2c(=O)c3ccccc3n(Cc3ccc(C(=O)NO)cc3)c2=O)cc1	1.8	4.28 µM	2.18	5.83 µM	3.23	13.5 µM	2.8	> 100 µM	1.93	5.25 µM	4.1	16.3 µM	3.24	> 100 µM	1.9	6.63 µM	2.58	12.9 µM	3.51	> 100 µM
COc1ccccc1CNCCCN1C(=O)c2ccc3c4c(ccc(c24)C1=O)C(=O)N(CCCNCc1ccccc1OC)C3=O	0.198	0.407 µM	0.436	0.876 µM	0.17	0.555 µM	0.194	2 µM	0.221	0.612 µM	0.2	0.46 µM	0.163	0.309 µM	0.188	0.42 µM	0.167	0.421 µM	0.212	0.453 µM
COc1cc2c3c(n(CCCN)c(=O)c2cc1OC)-c1ccc(N)cc1C3=O	1.08	10.7 µM	2.16	14.7 µM	5.9	37.8 µM	0.389	7.28 µM	0.302	1.61 µM	12.9	44.3 µM	1.64	9.03 µM	0.842	7.37 µM	4.52	16.8 µM	0.461	4.91 µM
O=C1NC(=NCc2cccs2)O/C1=C\c1ccc2ncccc2c1	4.42	11.5 µM	5.87	18 µM	4.07	21.5 µM	4.8	16.7 µM	2.87	8.59 µM	4.46	12.5 µM	5.82	> 25 µM	2.98	12.6 µM	6.62	> 25 µM	4.64	15.3 µM
COc1cc2c(cc1C)NC(=O)/C2=C\c1ccc(Oc2ccccc2)cc1	11.9	26 µM	15.7	29.5 µM	15.6	29 µM	8.36	27.5 µM	17.9	32.7 µM	14.7	33.4 µM	13.2	26 µM	15.1	48.4 µM			0.0511	11.8 µM
N#CC1=C(N)Oc2c(ccc3ccccc23)C1c1cc2ccccc2n2nnnc12 (configuration not stated)	0.451	> 100 µM	4.04	> 100 µM	1.71	> 100 µM	0.739	> 100 µM			3.02	> 100 µM	2.77	> 100 µM	1.83	> 100 µM	0.496	> 100 µM	0.26	16.7 µM
CN1CCN(C(=O)/C=C/c2ccc([N+](=O)[O-])o2)CC1	11.1	23.4 µM	9.59	49.3 µM	3.29	13.1 µM	2.72	27.9 µM	15	45 µM	18.8	41.5 µM	9.33	21.2 µM	18.1	45.4 µM	14.9	45.1 µM	10.7	34 µM
O=C1NC(c2ccccc2Cl)Nc2ccccc21 (configuration not stated)		> 100 µM		> 100 µM		> 100 µM		> 81.5 µM		32.6 µM		> 100 µM		> 100 µM		> 100 µM		> 100 µM		16.4 µM
CN(C)CCCC1(c2ccc(F)cc2)OCc2cc(-c3csc4ccccc34)ccc21 (configuration not stated)	1.69	3.13 µM	1.68	3.07 µM	1.64	3 µM			1.71	3.08 µM	1.82	3.66 µM	1.72	3.15 µM	1.71	3.7 µM	1.6	3.18 µM	1.77	3.7 µM
O=S(=O)(Nc1ccccc1)c1ccc(C2CC3(Cl)C(Cl)=C(Cl)C2(Cl)C3(Cl)Cl)cc1 (configuration not stated)	1.66	3.58 µM			3.37	10.5 µM	3.24	11.9 µM	2.32	5.79 µM	3.11	11 µM	3.58	10.1 µM	2.54	6.82 µM	1.96	3.72 µM	2.42	5.79 µM
